assay: Human HepG2 cell viability assay in 384 well format; format: toxicity, cell-based; set-up: dose 125 nL, time 70.5 hour; cytotoxicity at 70.5 h: concentration not given beside the values; conditions: HepG2 cells, read-out: Inhibition

Compound | cytotoxicity at 70.5 h
O=C(c1ccc(-c2nc[nH]n2)cc1)N1CCOC(C(F)(F)F)C1 (centres undefined) | 23.3%
COc1cccc(-n2cc(-c3ccnc(N[C@H](CO)C(C)C)n3)cn2)c1 | -2.44%
CC(=O)NCc1nnn2c1CN(c1ncc(C)cn1)CCC2 | -20.5%
Cc1cc(NC(=O)c2ccccc2Br)n(C)n1 | 2.28%
CN(C)c1nccc(N(C)C2CCOCC2)n1 | -2.99%
O=C(CCc1cnn(-c2ccccc2)c1)N1CCCC(n2cccn2)C1 (centres undefined) | 6.67%
CCOC1COC2(CCN(Cc3ccc4c(c3)OCO4)CC2)C1 (centres undefined) | -9.87%
CC(C)=CCN1CCN(Cc2cc(C)c(O)c(C)c2)CC1CCO (centres undefined) | 9.39%
Clc1cccc(-c2nc(CNC3CCc4ncnn4C3)co2)c1 (centres undefined) | 11.6%
Cc1cc(S(=O)(=O)NC(=O)CCc2cccnc2)c(C)s1 | 1.22%
CN1CCOCC2(CCCN(C(=O)c3ccc(-n4cccc4)cc3)C2)C1 (centres undefined) | 9.26%
O=C(CN1CCOC(Cn2cccn2)C1)NC(C1CC1)C1CC1 (centres undefined) | -6.99%
COc1ccc(C)cc1CN1CCn2cccc2C1C (centres undefined) | -1.19%
CCCn1cc(C(=O)NCCC(=O)NC2CCCCC2)c(C)n1 | -4.38%
O=C1NCCN1C(CNS(=O)(=O)C1CC1)Cc1cccc(F)c1 (centres undefined) | -13.5%
Cc1noc([C@H]2C[C@@H]3CCN(C(=O)c4cccn4C)C[C@H]3O2)n1 | -3.46%
COc1ccc(Cl)cc1CC(=O)NS(=O)(=O)c1ccc(C(N)=O)cc1 | -3.68%
CCOc1ncccc1CNC(=O)Nc1ccc(N(C)C)nc1 | 17.3%
CCOc1cc(C(=O)O)cc(-c2ccccc2)c1OC | -1.01%
Cc1cc(C(=O)N2C[C@@H]3COC[C@]3(c3nnc(C(C)C)o3)C2)on1 | -9.37%
CCCc1nnc(NCCCn2nc(C)c(Cl)c2C)o1 | -7.76%
Cc1cncc(C(=O)N2CCCC(O)(CO)C2)c1 (centres undefined) | -7.18%
CC(=O)N1CCC2(CC1)COC(COCc1ccccn1)C2 (centres undefined) | -1.84%

Compound | cytotoxicity at 70.5 h
Cc1nn(C)c(N(C)C)c1CNCc1cccnc1-n1cncn1 | -5.08%
CN(CCCN1CCCCCC1)C(=O)c1ccccc1NCC(=O)O | -12.7%
Cc1cc(C)n(CC(=O)N2CCCC2c2cc3cccnc3[nH]2)n1 (centres undefined) | 2.7%
CC(C)c1sc(Br)nc1C(=O)NCc1cccnc1 | 23.2%
CCc1ncncc1C(=O)N1CCOC(c2nc(C)n[nH]2)C1 (centres undefined) | -3%
CN(Cc1nc2ccccc2o1)CC1CCCN1c1cccnn1 (centres undefined) | 7.03%
CC(C)C[C@H](N)C(=O)N1CCSc2ccccc2C1 | 0.624%
c1cnc(N2CCOCC3(CCCN(CC4CC4)C3)C2)cn1 (centres undefined) | -5.91%
CC1(C(=O)N2CCSCC2)CNCCO1 (centres undefined) | 11.8%
CN(Cc1c(F)cccc1Cl)C(=O)CN(C)C1CCc2ccccc21 (centres undefined) | -5.53%
O=C(Cc1ccccc1)N1CCC(c2nnc(-c3ccccn3)o2)CC1 | 21.6%
COc1cc(C(C#N)NC(=O)CC2=CCCCC2)cc(OC)c1OC (centres undefined) | -5.49%
CC(C)N1CC(C(=O)NCCOc2ccc3c(c2)OCO3)CC1=O (centres undefined) | 1.18%
CCc1nc2n(n1)CC(NCC(=O)Nc1oc(C)c(C)c1C#N)CC2 (centres undefined) | 7.08%
CCN1CCOCC2(CCCN(C(=O)c3ccccc3F)C2)C1 (centres undefined) | 8.58%
CC1CN(S(=O)(=O)c2ccc(F)cc2F)c2cccnc2O1 (centres undefined) | -6.28%
Cc1nc(N2CCN(C)CC2)ncc1C(=O)N1CCCCCC1 | -1.12%
O=C(CS(=O)(=O)Cc1nnnn1C1CC1)NCC1CC1 | -4.04%
COc1ncccc1C(=O)N1CCCC(c2cc(C)[nH]n2)C1 (centres undefined) | -2.72%
CCCC1CCCN(C(=O)Nc2ccc(F)c(C(N)=O)c2)CC1 (centres undefined) | -1.9%
Cc1cccc(N2CCN(CCC(=O)NCc3nnc[nH]3)CC2)c1 | -1.67%
Cc1nc(C2(NCC(=O)NC(=O)NCC(F)(F)F)CCCCC2)no1 | 13.9%
CNc1nc(C(=O)N2CCCC(c3nccn3CC3CCC3)C2)cs1 (centres undefined) | 8.97%

Compound | cytotoxicity at 70.5 h
CCC1CN(C(=O)c2ccc(O)c(C)c2)CCN1C(C)C (centres undefined) | -5.22%
CCCN(CC(F)F)c1cc(COC)nc2ncnn12 | -9.58%
Cc1ccc(CNc2cc3[nH]c(O)nc3cc2C)cc1 | -19.5%
COc1cc(NCc2ccc(Cl)cc2)c(-c2nn[nH]n2)cc1OC | -0.792%
Cc1ccccc1C(C(=O)N(C)CCc1cn[nH]c1)N(C)C (centres undefined) | -7.29%
COc1cccc(OCc2cc(C(=O)NC[C@@H]3CCCN3)n[nH]2)c1 | 0.523%
CS(=O)(=O)Cc1nc(CN2CC=C(c3ccccc3)CC2)cs1 | -10.5%
Cc1nc2sccn2c1CNc1cc(C(=O)O)ccc1F | -7.72%
Nc1ncnc2[nH]c(N3CCCCC3)nc12 | -6.41%
CCc1c(C(=O)N2CCN(CC(N)=O)CC2)cnn1C(C)(C)C | -2.02%
CC(=O)NCCn1ccnc1-c1cccc(C(C)N(C)C)c1 (centres undefined) | 5.57%
CCC(CO)NCc1ccc(-c2ccccc2)o1 (centres undefined) | 29.3%
Cc1cc(C(=O)N2CCCC2c2nc(O)cc(C(C)C)n2)on1 (centres undefined) | -5.06%
Cc1nc2c(c(NCc3ccccc3)n1)CCN(C(=O)NC(C)C)CC2 | 30.7%
Cc1noc(C)c1CC(=O)NCCc1cccs1 | 7.71%
O=C(O)c1ccnc(-c2ccnc(N3CCCCCC3)n2)c1 | 17.6%
CC(C)c1noc(CN(C)C(c2ccc(F)cc2)c2cccnc2)n1 (centres undefined) | 10.2%
Cn1cnc(CNC(=O)c2ccccc2-n2cc(CN)cn2)c1 | -5.11%
Cc1ccsc1CNC1CCCc2c1cnn2C (centres undefined) | -2.66%
COc1ccccc1CNc1cnn(CC(F)F)c1 | 1.56%
COc1ccccc1OC1(C(=O)O)CCN(c2nccnc2C)CC1 | -5.26%
O=S(=O)(c1cccs1)N1Cc2nc(CN3CCCCC3)oc2C1 | -8.94%
CN1CC[C@H](c2ccccc2)[C@@H]2[C@H]1CCCCN2C(=O)c1cnccn1 | -8.44%

Compound | cytotoxicity at 70.5 h
Cc1nc(-c2ccsc2)ccc1C(=O)NCCCN1CCOCC1 | -5.66%
COc1cc(N2C[C@@H]3CC[C@H](C2)N(CC2CCC2)C3=O)ncn1 | -3.49%
Cc1ccc(C(=O)N2CCOCC2C(N)=O)c(F)c1 (centres undefined) | -8.13%
COCCCC1(CO)CCCN(Cc2nccs2)C1 (centres undefined) | -7.41%
O=C([C@H]1C[C@@H]2CN(c3ncc(F)cn3)C[C@H]1O2)N1CCCC1 | -9.42%
O=C(CCNC1(c2nccs2)CCCC1)N1CCOCC1 | 7.56%
Cc1nn(C)c2c(=O)n(CC(=O)NCc3ccc(N(C)C)cc3)ccc12 | -0.296%
CCS(=O)(=O)N1CCn2cc(CN(C)Cc3ccco3)nc2C1 | -2.7%
N#Cc1ccc(CN2CC3(CCCCN3c3cccnc3)CC2=O)cc1 (centres undefined) | 1%
NCC1CN(C(=O)c2cccc(-n3cccn3)c2)CCO1 (centres undefined) | 5.52%
FC(F)(F)c1cc(C2CCNCC2)nc(-c2ccsc2)n1 | -11.8%
CN(Cc1noc(C2CC2)n1)C1CCN(Cc2ccccc2C#N)C1 (centres undefined) | 17.8%
CSCCC(C)NC(=O)CCN1C(=O)CCc2cc(F)ccc21 (centres undefined) | -4.19%
CCc1nc(CN(C)C2CCN(CCCOc3ccccc3)C2)no1 (centres undefined) | 9.63%
Cc1ccc(CNC(=O)CCN2CCOC(C(F)(F)F)C2)cc1 (centres undefined) | -2.06%
COC1CCC[C@@H]2CN(Cc3csc(C)n3)C[C@H]12 (some centres undefined) | -4.08%
O=S(=O)(N1CCCC1)N1CCN(CC2CCCO2)CC1 (centres undefined) | -3.59%
CN1C(=O)C(c2ccccc2)CC12CCN(CCOCCO)CC2 (centres undefined) | 3.55%
Cc1nc(C)n(C2CCCN(C(=O)CCOC(C)C)C2)n1 (centres undefined) | 10.2%
Cc1ncc2c(n1)CN(CCCOc1ccc(C#N)cc1)CC2 | 3.97%
CC(C)c1nn(C)cc1CNCc1cccnc1N(C)C | 2.18%
CN(CCS(=O)(=O)c1cc(Cl)ccc1Cl)CC(=O)Nc1cccc(F)c1 | -0.61%
CC(C(=O)N(C)C)S(=O)(=O)c1cc2c(cc1Cl)OCCO2 (centres undefined) | -6.12%

Compound | cytotoxicity at 70.5 h
O=C(CCC1CCCO1)NS(=O)(=O)c1ccc(Cl)cc1 (centres undefined) | -5.11%
O=C1CCC2(CCCN(C(=O)c3ncc[nH]3)C2)CN1CCc1c[nH]cn1 (centres undefined) | 13.6%
N#CC1COCCN1S(=O)(=O)c1ccc2ccccc2c1 (centres undefined) | -1.81%
COCCNC(=O)[C@@]12CCO[C@@H]1CCN(Cc1cc(C)on1)C2 | 7.02%
Fc1ccc(C2(c3noc(CCN4CCCCO4)n3)CCOC2)cc1 (centres undefined) | -11.7%
CN(Cc1ccncc1)C(=O)Nc1cnn(CC(N)=O)c1 | -4.03%
CC(=O)N1CC2(CCN(Cc3ccc(Cl)cc3)CC2)Cc2ccccc21 | 9.92%
O=C(c1cnccn1)N1CC(S(=O)(=O)c2ccc(Cl)cc2)C1 | -4.33%
CCCN1CCN(C(=O)c2cnccn2)[C@H]2CS(=O)(=O)C[C@H]21 | -0.654%
Cc1ccc(CC(=O)Nc2ccc(CS(C)(=O)=O)c(F)c2)cc1 | -2.59%
Cc1ccc(-c2[nH]c3ccccc3c2C(=O)O)c(C)c1 | -4.63%
CN(CC(=O)NC(C)(C)C)C(=O)c1cccn1CCc1ccccc1 | 5.51%
CC(C)(C)c1cc(NC(=O)CNC2CCc3ncnn3C2)on1 (centres undefined) | -11.9%
COc1cccc2c1CCN(C(=O)NCCc1nccn1C)C2 | -1.05%
CN1C(=O)CCC12CCN(c1ccc(C#N)cn1)CC2 | -8.99%
Cc1cc(C)n(CCCN(C)C(=O)CN2CC3(CCNCC3)OC2=O)n1 | -8.19%
O=C(NCc1ccccc1)c1nc2c(o1)CN(C(=O)c1cccnc1)C2 | -9%
CCOC(=O)NC(CNC(=O)c1cn(C)cn1)CC(C)C (centres undefined) | -1.97%
COc1ccc(C[C@H]2CN(Cc3ccoc3)CC[C@@H]2OC)cc1 | -2.46%
CC(C)C1SCC(=O)Nc2c1cnn2C(C)C (centres undefined) | -23.1%
CC(C)(CNC(=O)NCCOc1cccc(F)c1)C(N)=O | -1.08%
CCc1n[nH]c(SCC(=O)N2C[C@@H]3CC[C@H](C2)N(CC=C(C)C)C3)n1 | 0.686%
